The values that follow come from patent publication US5604234A, “Substituted thiol macrolactam immunomodulators” (Abbott Laboratories, priority 1995, dated 1997).

The experiment concerns human mixed lymphocyte reaction (MLR). The experiment can be described thus: human mixed lymphocyte reaction (MLR), serum free variation. The format is cell-based. The settings on record: serum-free medium AIM V, Table 3. The protocol:
In vitro Assay of Biological Activity (Serum Free MLR)
The in viitro immunosuppressant activity of the compounds of the present invention can also be determined using a variation of the human mixed lymphocyte reaction (MLR) assay described by Kino, T. et al. in Transplantation Proceedings, XIX(5):36-39, Suppl. 6 (1987). In this assay, the cell culture was performed in a serum-free medium, AIM V (GibcoBRL Life Technologies, Grand Island, N.Y.), instead of the usual RPMI 1640 plus 10% heat-inactivated fetal bovine serum medium. The final cell concentrations of the responder and stimulator peripheral blood mononuclear cells were, respectively, 5×10^5/mL and 2×10^6/mL of cells pooled from four donors.

For orientation: IC50 means the concentration that inhibits the measured activity by half. Lower therefore signals inhibition by little substance.

Under “Homo sapiens, Lymphocyte”, `CC[C@@H]1/C=C(\C)C[C@H](C)C[C@H](OC)[C@H]2O[C@@](O)(C(=O)C(=O)N3CCCC[C@H]3C(=O)O[C@H](/C(C)=C/[C@@H]3CC[C@H]([S+]([O-])CC(=O)OCc4ccccc4)[C@H](OC)C3)[C@H](C)[C@@H](O)CC1=O)[C@H](C)C[C@@H]2OC` (single isomer, unassigned) [Example 54] returned an IC50 of 8.7 nM.
The compound `CC[C@@H]1/C=C(\C)C[C@H](C)C[C@H](OC)[C@H]2O[C@@](O)(C(=O)C(=O)N3CCCC[C@H]3C(=O)O[C@H](/C(C)=C/[C@@H]3CC[C@H]([S+]([O-])CCC(=O)OCc4ccccc4)[C@H](OC)C3)[C@H](C)[C@@H](O)CC1=O)[C@H](C)C[C@@H]2OC` (single isomer, unassigned) [Example 62] returned an IC50 (Homo sapiens, Lymphocyte) of 29.2 nM.
In turn, `CC[C@@H]1/C=C(\C)C[C@H](C)C[C@H](OC)[C@H]2O[C@@](O)(C(=O)C(=O)N3CCCC[C@H]3C(=O)O[C@H](/C(C)=C/[C@@H]3CC[C@H]([S+]([O-])CCC(=O)OC(C)C)[C@H](OC)C3)[C@H](C)[C@@H](O)CC1=O)[C@H](C)C[C@@H]2OC` (single isomer, unassigned) [Example 65] displayed an IC50 (Homo sapiens, Lymphocyte) of 32 nM.
Consider `CCC(CC)OC(=O)CC[S+]([O-])[C@H]1CC[C@@H](/C=C(\C)[C@H]2OC(=O)[C@@H]3CCCCN3C(=O)C(=O)[C@]3(O)O[C@H]([C@@H](OC)C[C@@H](C)C/C(C)=C/[C@@H](CC)C(=O)C[C@H](O)[C@H]2C)[C@@H](OC)C[C@H]3C)C[C@H]1OC` (single isomer, unassigned) [Example 67], for which the IC50 (Homo sapiens, Lymphocyte) was found to be 25.6 nM.
On the same count and under the same terms, with `CC[C@@H]1/C=C(\C)C[C@H](C)C[C@H](OC)[C@H]2O[C@@](O)(C(=O)C(=O)N3CCCC[C@H]3C(=O)O[C@H](/C(C)=C/[C@@H]3CC[C@H]([S+]([O-])CCC(=O)N(C)O)[C@H](OC)C3)[C@H](C)[C@@H](O)CC1=O)[C@H](C)C[C@@H]2OC` (single isomer, unassigned) [Example 69] the figure was 6.24 nM; with `CC[C@@H]1/C=C(\C)C[C@H](C)C[C@H](OC)[C@H]2O[C@@](O)(C(=O)C(=O)N3CCCC[C@H]3C(=O)O[C@H](/C(C)=C/[C@@H]3CC[C@H]([S+]([O-])CC(=O)O)[C@H](OC)C3)[C@H](C)[C@@H](O)CC1=O)[C@H](C)C[C@@H]2OC` (single isomer, unassigned) [Example 73], 9.6 nM; with `CC[C@@H]1/C=C(\C)C[C@H](C)C[C@H](OC)[C@H]2O[C@@](O)(C(=O)C(=O)N3CCCC[C@H]3C(=O)O[C@H](/C(C)=C/[C@@H]3CC[C@H](SC(=O)C(C)NC(C)=O)[C@H](OC)C3)[C@H](C)[C@@H](O)CC1=O)[C@H](C)C[C@@H]2OC` (single isomer, unassigned) [Example 117A], 2.4 nM.
Turning to `CC[C@@H]1/C=C(\C)C[C@H](C)C[C@H](OC)[C@H]2O[C@@](O)(C(=O)C(=O)N3CCCC[C@H]3C(=O)O[C@H](/C(C)=C/[C@@H]3CC[C@H](SC(=O)C(C)NC(C)=O)[C@H](OC)C3)[C@H](C)[C@@H](O)CC1=O)[C@H](C)C[C@@H]2OC` (single isomer, unassigned) [Example 117B], the IC50 is 2.5 nM.
With `CCC1C=C(C)CC(C)CC(OC)C2OC(O)(C(=O)C(=O)N3CCCCC3C(=O)OC(C(C)=CC3CCC(SC(C)=O)C(OC)C3)C(C)C(O)CC1=O)C(C)CC2OC` (stereo not drawn) [Example 2], 0.16 nM corresponded to half-maximal inhibition (Homo sapiens, Lymphocyte) (IC50).
On to `CCC1C=C(C)CC(C)CC(OC)C2OC(O)(C(=O)C(=O)N3CCCCC3C(=O)OC(C(C)=CC3CCC(S)C(OC)C3)C(C)C(O)CC1=O)C(C)CC2OC` (stereo not drawn) [Example 8A, 32-epi-Thiol Ascomycin], for which, where the note is “Homo sapiens, Lymphocyte”, it took 0.75 nM to reach half-maximal inhibition (IC50).
Same read-out and setting: with `CCC1C=C(C)CC(C)CC(OC)C2OC(O)(C(=O)C(=O)N3CCCCC3C(=O)OC(C(C)=CC3CCC(SCCC(=O)Oc4ccccc4)C(OC)C3)C(C)C(O)CC1=O)C(C)CC2OC` (stereo not drawn) [Example 8] the figure was 1.8 nM.
On the same count and under the same terms, next, `CCC1C=C(C)CC(C)CC(OC)C2OC(O)(C(=O)C(=O)N3CCCCC3C(=O)OC(C(C)=CC3CCC(SCCC(=O)OC)C(OC)C3)C(C)C(O)CC1=O)C(C)CC2OC` (stereo not drawn) [Example 9]: 8.9 nM.
